Laboratory results taken from PMC11239955, “Phase 1 pharmacokinetic and safety study of soticlestat in participants with mild or moderate hepatic impairment or normal hepatic function” (Pharmacology Research & Perspectives, 2024).
Read-outs that look alike come from different tables or passages of the source.

Columns and labels:
clinical [1] = details: human, in vivo
Protocol: This was a phase 1, open‐label study of a single dose of oral soticlestat 300 mg with three treatment arms (NCT05098054)[25]: moderate hepatic impairment (Child‐Pugh B; score ≥7 and ≤9; anticipated enrollment n = 8); mild hepatic impairment (Child‐Pugh A; score ≥5 and ≤6; n = 8); and normal hepatic function (n = 12–24). Screening occurred at an outpatient visit up to 28 days before dosing. Participants were admitted to the clinic the day before dosing and remained until day 7. Follow‐up phone contact occurred 14 ± 2 days after dosing.
The moderate hepatic impairment arm was conducted first, followed by the matched normal hepatic function arm. After enrollment of the mild hepatic impairment arm, up to 12 additional participants could be enrolled for the matched normal hepatic function group to ensure a minimum of 12 participants with normal hepatic function and matching the mean of the mild hepatic impairment arm by age, sex, and BMI. Soticlestat was taken as three 100 mg immediate‐release tablets on day 1 with approximately 240 mL water under fasting conditions (≥10 h before dosing and 4 h post‐dose).
(§1) Medical history and demographic data were recorded at screening. Twelve‐lead ECG, pulse rate, and BP were taken 2, 24, and 144 h after dosing or at early termination, and respiratory rate and temperature were taken 24 and 144 h after dosing or at early termination. Hematology, coagulation, serum chemistry, and urine analysis were conducted 48 and 144 h after dosing or at early termination. Blood samples for pharmacokinetic assessments of soticlestat and its metabolites M‐I and M3 were taken predose and 0.133, 0.25, 0.5, 0.75, 1, 1.5, 2, 4, 6, 8, 10, 14, 24, 36, 48, 72, 96, 120, and 144 h after dose administration or at early termination. Blood samples for plasma protein binding were taken predose and 0.5 and 10 h after dose administration. TEAE monitoring occurred throughout the study and at follow‐up.
The study's primary endpoints were the following pharmacokinetic parameters for soticlestat: C max; area under the total plasma concentration‐time curve from time 0 to infinity (AUC∞); and AUC from time 0 to time of the last quantifiable total plasma concentration (AUClast). The incidences of TEAEs and clinically significant abnormal values for laboratory evaluations, vital signs, ECG parameters, and Columbia‐Suicide Severity Rating Scale were secondary objectives. Exploratory endpoints were plasma pharmacokinetic parameters of soticlestat metabolites M‐I and M3 (C max, AUC∞, AUClast, metabolite‐to‐parent ratio [MPR] C max, MPR AUClast, and MPR AUC∞); additional plasma pharmacokinetic parameters of soticlestat and the metabolites M‐I and M3 (time of first occurrence of C max [t max] and terminal disposition phase half‐life [t ½z]); additional plasma pharmacokinetic parameters of soticlestat (apparent clearance after extravascular administration, calculated using the observed value of the last quantifiable total plasma concentration [CL/F]; apparent volume of distribution during the terminal disposition phase after extravascular administration, calculated using the observed value of the last quantifiable total plasma concentration [Vz/F]); and plasma protein binding of soticlestat: fraction of unbound soticlestat.
Total soticlestat, M‐I, and M3 concentrations and unbound soticlestat concentrations were determined using liquid chromatography–tandem mass spectrometry by CMIC, Inc. (Hoffman Estates, IL, USA). Unbound plasma soticlestat concentrations were measured using ultrafiltration (by CMIC, Inc.). Pharmacokinetic parameters were calculated using Phoenix® WinNonlin® version 8.3.4.
Descriptive statistics were derived for the concentration data: number of observations (n), arithmetic mean (mean), standard deviation (SD), arithmetic percent coefficient of variation (CV%), standard error of the mean, minimum, median, and maximum. […]

clinical [2] = format: in vitro ADME; details: human, plasma, Plasma protein binding, mean
Protocol: Medical history and demographic data were recorded at screening. Twelve‐lead ECG, pulse rate, and BP were taken 2, 24, and 144 h after dosing or at early termination, and respiratory rate and temperature were taken 24 and 144 h after dosing or at early termination. Hematology, coagulation, serum chemistry, and urine analysis were conducted 48 and 144 h after dosing or at early termination. […] Blood samples for plasma protein binding were taken predose and 0.5 and 10 h after dose administration. TEAE monitoring occurred throughout the study and at follow‐up. The study's primary endpoints were the following pharmacokinetic parameters for soticlestat: C max; area under the total plasma concentration‐time curve from time 0 to infinity (AUC∞); and AUC from time 0 to time of the last quantifiable total plasma concentration (AUClast). The incidences of TEAEs and clinically significant abnormal values for laboratory evaluations, vital signs, ECG parameters, and Columbia‐Suicide Severity Rating Scale were secondary objectives. […] Total soticlestat, M‐I, and M3 concentrations and unbound soticlestat concentrations were determined using liquid chromatography–tandem mass spectrometry by CMIC, Inc. (Hoffman Estates, IL, USA). Unbound plasma soticlestat concentrations were measured using ultrafiltration (by CMIC, Inc.). Pharmacokinetic parameters were calculated using Phoenix® WinNonlin® version 8.3.4.

[3] = Safety: treatment-emergent adverse events after single oral soticlestat 300 mg; format: in vivo, human
Protocol: as §1
The study's primary endpoints were the following pharmacokinetic parameters for soticlestat: C max; area under the total plasma concentration‐time curve from time 0 to infinity (AUC∞); and AUC from time 0 to time of the last quantifiable total plasma concentration (AUClast). The incidences of TEAEs and clinically significant abnormal values for laboratory evaluations, vital signs, ECG parameters, and Columbia‐Suicide Severity Rating Scale were secondary objectives. […]

plasma protein = tested on: plasma protein; parameters: method as in PMID 37771051; details: human, cited from earlier work
[4] = parameters: method as in PMID 33837574; details: healthy volunteers, doses 15 to 1350 mg; cited from earlier work
[5] = biological target: cholesterol 24‐hydroxylase (CH24H); details: no method or reference given; read-out: CH24H inhibition IC50; cited from earlier work
[6] = cited from earlier work
[7] = 300 mg dose of [14C]soticlestat

O=C(c1cccnc1-c1ccncc1)N1CCC(O)(Cc2ccccc2)CC1 [soticlestat]
Increase in total plasma exposure vs healthy matched participants (preliminary analysis) (clinical [1]): approximately 3 fold | Total plasma AUClast higher vs healthy participants (preliminary analysis) (clinical [1]): approximately 3 fold | Total plasma AUC∞ higher vs healthy participants (preliminary analysis) (clinical [1]): approximately 3 fold | Vd/F (clinical [1]; po, 300 mg, Mean ± SD Vz/F, total plasma): 890 ± 1900 L | half-life (clinical [1]; po, 300 mg, Mean ± SD t½z, total plasma): 219 ± 58.5 min | Tmax (clinical [1]; po, 300 mg, Median (range) tmax, total plasma): 30 min | fraction unbound (clinical [2]): 0.175 | TEAEs based on serum chemistry, hematology, coagulation, urinalysis, vital signs, ECG, or Columbia-Suicide Severity Rating Scale ([3]; all study arms): no TEAEs | Number of TEAEs considered study drug related ([3]; in vivo): two | In vitro plasma protein binding (plasma protein; 0.1 μg/mL): 94.0% | In vitro plasma protein binding (plasma protein; 1 μg/mL): 93.4% | In vitro plasma protein binding (plasma protein; 10 μg/mL): 70.6% | Main binding protein in plasma (plasma protein): mainly bound to human α‐1‐acid glycoprotein | Mean plasma maximum concentration (Cmax) [4]: 43.5 to 7950 ng/mL | Terminal elimination half-life [4]: 49.2 to 430 min | IC50 [5]: 4.5 nM | Administered dose recovered in urine as this substance [6, 7]: 0.1% | Recovery of total radioactivity in feces [6, 7]: 2.7% | Recovery of total radioactivity in urine [6, 7]: 94.8% | Excreted in urine [6]: < 1% | Share of soticlestat metabolism accounted for by UGT1A9 and UGT2B4 [6]: approximately 90% | Absolute bioavailability ([6]; healthy volunteers): 12.6%
